# In patent publication US8759343B2 (priority 2007, dated 2014):
# Counter-ions that a name gives are not always drawn.
row,Structure (SMILES),melting point [°C]
1,FC(F)(F)c1cccc(-c2ccc(C34CCCN(CCC3)C4)cn2)c1 (as salt: HBr),155 to 157
2,COc1ccccc1-c1ccc(C23CCN(CC2)C3)cn1 (as salt: HBr),114 to 116
3,Fc1cc(-c2ccc(C34CCN(CC3)C4)cn2)ccc1-c1ccccc1,153 to 155
4,Fc1ccc(-c2ccc(C34CCCN(CCC3)C4)cn2)cc1,107 to 109
5,c1ccc2oc(-c3ccc(C45CCCN(CCC4)C5)cn3)cc2c1,152 to 154
6,c1nc(N2CCOCC2)ncc1-c1ccc(C23CCCN(CCC2)C3)cn1,189 to 191
7,COc1ccc(-c2ccc(C34CCCN(CCC3)C4)cn2)c(OC)c1 (as salt: HBr),198 to 200
8,c1cc(-c2ccc(C34CCCN(CCC3)C4)cn2)c2cccnc2c1,147 to 149
9,FC(F)(F)Oc1ccc(-c2ccc(C34CCN(CC3)C4)cn2)cc1,75 to 76
10,Fc1ccccc1-c1ccc(C23CCCN(CCC2)C3)cn1,117 to 119
11,c1cc(-c2ccc(C34CCN(CC3)C4)cn2)c[nH]1 (as salt: HCl),324 to 326
12,c1ccc2ncc(-c3ccc(C45CCN(CC4)C5)cn3)cc2c1,267 to 268
13,c1cc2nonc2cc1-c1ccc(C23CCN(CC2)C3)cn1,139 to 140
14,c1ccc2c(c1)sc1ccc(-c3ccc(C45CCCN(CCC4)C5)cn3)cc12 (as salt: HCl),242 to 244
15,COc1ccncc1-c1ccc(C23CCN(CC2)C3)cn1,97 to 99
16,COc1ncc(-c2ccc(C34CCCN(CCC3)C4)cn2)c(OC)n1,81 to 83
17,COc1cccc(-c2ccc(C34CCN(CC3)C4)cn2)c1F,144 to 146
18,c1cncc(-c2ccc(C34CCCN(CCC3)C4)cn2)c1,118 to 120
19,Fc1ccccc1-c1ccc(C23CCN(CC2)C3)cn1,110 to 112
20,c1ccc2c(-c3ccc(C45CCCN(CCC4)C5)cn3)cncc2c1 (as salt: HBr),332 to 334
21,Fc1ccc(-c2ccc(C34CCCN(CCC3)C4)cn2)cn1,121 to 122
22,c1ccc(-c2ccc(C34CCN(CC3)C4)cn2)cc1,126 to 128
23,CC(C)(C)OC(=O)N1CCN(c2ccc(-c3ccc(C45CCN(CC4)C5)cn3)cn2)CC1,216 to 218
24,c1cc(-c2ccc(C34CCCN(CCC3)C4)cn2)cc(-n2cccn2)c1,135 to 137

row,Structure (SMILES),melting point [°C]
1,c1cc(-c2ccc(C34CCN(CC3)C4)cn2)c2cccnc2c1,129 to 131
2,FC(F)(F)Oc1ccc(-c2ccc(C34CCCN(CCC3)C4)cn2)cc1,120 to 122
3,c1ccc(-c2ccc(-c3ccc(C45CCN(CC4)C5)cn3)cc2)cc1,191 to 192
4,c1cc2c(cc1-c1ccc(C34CCCN(CCC3)C4)cn1)OCO2,124 to 126
5,COc1ccc(-c2ccc(C34CCN(CC3)C4)cn2)c(OC)c1 (as salt: HBr),195 to 197
6,c1ccc2c(c1)nnn2-c1ccc(C23CCCN(CCC2)C3)cn1 (as salt: HCl),258 to 260
7,c1ncc(-c2ccc(C34CCN(CC3)C4)cn2)cn1,244 to 246
8,FC(F)(F)c1cc(-c2ccc(C34CCN(CC3)C4)cn2)cc(C(F)(F)F)c1,117 to 119
9,c1ccc2sc(-c3ccc(C45CCN(CC4)C5)cn3)cc2c1,202 to 203
10,COc1ccc(-c2ccc(C34CCN(CC3)C4)cn2)cc1F,125 to 126
11,Fc1ccc(-c2ccc(C34CCN(CC3)C4)cn2)cc1F,85 to 87
12,COc1cccc(-c2ccc(C34CCCN(CCC3)C4)cn2)c1 (as salt: HCl),267 to 269
13,COc1ncc(-c2ccc(C34CCN(CC3)C4)cn2)c(OC)n1,104 to 106
14,CC(C)(C)OC(=O)N1CCN(c2ccc(-c3ccc(C45CCCN(CCC4)C5)cn3)cn2)CC1,202 to 204
15,c1cc(-c2ccc(C34CCCN(CCC3)C4)cn2)co1,335 to 337
16,c1ccc2sc(-c3ccc(C45CCCN(CCC4)C5)cn3)cc2c1,176 to 178
17,CC(=O)c1cccc(-c2ccc(C34CCCN(CCC3)C4)cn2)c1 (as salt: HBr),284 to 285
18,c1cnc2c(-c3ccc(C45CCN(CC4)C5)cn3)cccc2c1,176 to 178
19,Cn1ccc2cc(-c3ccc(C45CCCN(CCC4)C5)cn3)ccc21,166 to 168
20,Cc1ccc(-c2ccc(C34CCN(CC3)C4)cn2)cc1,134 to 136
21,c1cc(-c2ccc(C34CCCN(CCC3)C4)cn2)c[nH]1,152 to 154
22,c1cc(-c2ccc(C34CCN(CC3)C4)cn2)c2ccncc2c1,176 to 178
23,COc1cc(F)ccc1-c1ccc(C23CCN(CC2)C3)cn1,169 to 170
24,c1ccc(Oc2ccc(-c3ccc(C45CCCN(CCC4)C5)cn3)cc2)cc1,129 to 131

row,Structure (SMILES),melting point [°C]
1,COc1ccc(-c2ccc(C34CCCN(CCC3)C4)cn2)cc1,138 to 139
2,COc1ccc(-c2ccc(C34CCN(CC3)C4)cn2)cc1,160 to 162
3,c1cc(-c2ccc(C34CCN(CC3)C4)cn2)co1,279 to 281
4,c1ccc2c(c1)oc1c(-c3ccc(C45CCCN(CCC4)C5)cn3)cccc12,142 to 144
5,c1cncc(-c2ccc(C34CCN(CC3)C4)cn2)c1,228 to 229
6,COc1ccc(-c2ccc(C34CCN(CC3)C4)cn2)cc1OC (as salt: HCl),247 to 249
7,Fc1ccc(-c2ccc(C34CCN(CC3)C4)cn2)cn1,108 to 109
8,c1cc(N2CCCC2)ncc1-c1ccc(C23CCCN(CCC2)C3)cn1,301 to 303
9,Cn1cccc1-c1ccc(C23CCCN(CCC2)C3)cn1,105 to 107
10,COc1ccccc1-c1ccc(C23CCCN(CCC2)C3)cn1 (as salt: HBr),239 to 241
11,Fc1ncccc1-c1ccc(C23CCCN(CCC2)C3)cn1,98 to 99
12,COc1ccc(OC)c(-c2ccc(C34CCCN(CCC3)C4)cn2)c1,101 to 103
13,c1cc(-c2ccc(C34CCN(CC3)C4)cn2)ccn1,254 to 256
14,c1ccc2c(c1)oc1c(-c3ccc(C45CCN(CC4)C5)cn3)cccc12,158 to 160
15,Cn1cccc1-c1ccc(C23CCN(CC2)C3)cn1 (as salt: HCl),248 to 250
16,FC(F)(F)Oc1cccc(-c2ccc(C34CCCN(CCC3)C4)cn2)c1 (as salt: HBr),267 to 269
17,FC(F)(F)c1cc(-c2ccc(C34CCCN(CCC3)C4)cn2)cc(C(F)(F)F)c1 (as salt: HBr),226 to 228
18,FC(F)(F)c1ccc(-c2ccc(C34CCCN(CCC3)C4)cn2)cc1,135 to 137
19,Fc1cc(-c2ccc(C34CCCN(CCC3)C4)cn2)ccc1-c1ccccc1,144
20,c1cnc2ccc(-c3ccc(C45CCCN(CCC4)C5)cn3)cc2c1,151 to 153
21,COc1cc(F)cc(-c2ccc(C34CCN(CC3)C4)cn2)c1,95 to 97
22,c1ccc(Oc2ccc(-c3ccc(C45CCN(CC4)C5)cn3)cc2)cc1,141 to 143
23,c1ccc2c(-c3ccc(C45CCN(CC4)C5)cn3)cncc2c1,143 to 145
